Molecules are shown by their SMILES. Converted amounts (≈) assume the structure as drawn. Structures can show the parent of a compound that is named as a salt.

Here are results for three compounds from patent US7642249B2, “Dihydrogen phosphate salt of a prostaglandin D2 receptor antagonist” (Aventis Pharmaceuticals Inc., priority 2005, dated 2010).

What all share (format): physicochemical
Data set [1] is described as follows: Solubility in phosphate buffer (PBS pH 7.4). Here is the method: (§1) The dihydrogen phosphate salt has increased aqueous solubility over the free form and the hydrochloride salt. The following chart lists the solubilities of the free form, the hydrochloride salt and the dihydrogen phosphate salt at 25° C. in phosphate buffer (PBS pH 7.4, a mixture of 19% of a 0.1M monobasic sodium phosphate solution and 81% of a 0.1M dibasic sodium phosphate solution) and the solubilities of the free form and the dihydrogen phosphate salt 37° C. in a simulated intestinal fluid under fasted conditions (“FaSSIF”, prepared according to Dressman J. B., Amidon G. L., Reppas C. and Shah V. P., Dissolution testing as a prognostic tool for oral drug absorption: immediate release dosage forms, Pharmaceutical Research: 1998, Vol. 15, No. 1, 11-22).

Data set [2] can be described thus: Solubility in simulated intestinal fluid under fasted conditions (FaSSIF). Here is the method: as §1
A short description of data set [3]: Dynamic water vapor sorption (DVS) hygroscopicity. Particulars: at 94% relative humidity (RH). As for the experimental part: Dynamic Water Vapor Sorption (DVS)
The water sorption profile is determined using a SMS Instruments Dynamic Vapor Sorption Analyzer Model DVS-1 or VTI Instruments Model SGA-100 Dynamic Vapor Sorption Analyzer. RH and weight are calibrated using standards. The dihydrogen phosphate salt is loaded and dried at ≦1% RH for 2.5 hours prior to starting the experiment. The RH is stepped from about 0 to 95% RH. The specimen weight is considered constant at each step when percent mass change is less than 0.005% over a 5-minute interval with a minimum absolute equilibration time of 15 minutes.

As for `COc1nc(NCCc2ccc(Cl)cc2Cl)cc(-c2cccc(C(C)(C)C(=O)O)c2)n1` [Hydrochloride salt, 2-(3-{6-[2-(2,4-dichloro-phenyl)-ethylamino]-2-methoxy-pyrimidin-4-yl}-phenyl)-2-methyl-propionic acid], the “Solubility (PBS pH 7.4, 25° C., μg/mL)” value in data set [1] was determined as 5 μg/mL.
For `COc1nc(NCCc2ccc(Cl)cc2Cl)cc(-c2cccc(C(C)(C)C(=O)O)c2)n1` [Free form, 2-(3-{6-[2-(2,4-dichloro-phenyl)-ethylamino]-2-methoxy-pyrimidin-4-yl}-phenyl)-2-methyl-propionic acid], the “Solubility (PBS pH 7.4, 25° C., μg/mL)” value in data set [1] is on record as under 1 μg/mL. For the same compound, in data set [2], the “Solubility in FaSSIF (37° C., ug/mL)” value was 14 µg/mL (≈ 30.4 µM).
`COc1nc(NCCc2ccc(Cl)cc2Cl)cc(-c2cccc(C(C)(C)C(=O)O)c2)n1` [Dihydrogen phosphate salt, Dihydrogen phosphate salt of 2-(3-{6-[2-(2,4-Dichloro-phenyl)-ethylamino]-2-methoxy-pyrimidin-4-yl}-phenyl)-2-methyl-propionic acid]: in data set [1], the “Solubility (PBS pH 7.4, 25° C., μg/mL)” value came to 15 μg/mL. Also, the “weight gain during the sorption (DVS)” value in data set [3] is about 0.9%. For the same compound, the “Solubility in FaSSIF (37° C., ug/mL)” value in data set [2] is 266 µg/mL.
